Laboratory results: patent US20240315937A1, “STABLE EFFICIENT COSMETIC PREPARATIONS” (YISSUM RESEARCH DEVELOPMENT COMPANY OF THE HEBREW …, priority 2021, published 2024)

Columns and labels:
[1] = Dissolution of CBD in oil solvents of the creams; assay type: physicochemical; settings: CBD 2%; medium-chain triglycerides (MCT) and sesame oil
Procedure: The main tested parameters included the following: • 1. Reduction of ethanol: Ethanol is generally considered a co-solvent of CBD. The concentration of ethanol was reduced from initial to final preparations, starting from 3.6% and 0.9% to no ethanol in the final preparations, where CBD was dissolved directly in sesame oil (see for example CBD #34 in Table 13 below). • 2. Selection of an antioxidant: The selected antioxidants were BHT and propyl gallate, in various combinations and proportions. […] Due to this property, the final preparations contained 0.05% BHT (see Table 13, CBD #34). • 3. Selection of an oil: Oil is a known solvent for CBD. Various oils were tested as optional solvents in the cosmetic creams of the invention. […] Both MCT and sesame oil have antioxidants properties (see Table 13, CBD #34).

[2] = Force degradation of 2% CBD cream (CBD assay by HPLC); assay type: physicochemical; settings: vs untreated reference
Procedure: Samples were prepared by the following method: • 1. 200 mg 2% CBD cream vs. Blank (7 mL vials), • 2. Subjected to Oxidation/Base/Acid/Heat/UV conditions (see below), • 3. Mixing with 4 mL DMSO, • 4. Sonication, 30 min, • 5. Shaking, 1 h, • 6. Centrifugation at 4000 rpm, 5 min, • 7. Filtration by 0.22 μm PTFE, • 8. HPLC sample preparation and HPLC protocol as above.
Samples were subjected to the following force degradation conditions and tested for CBD content: • Heat: 200 mg cream was heated at 100° C. (oil bath) for 6 h; • UV: 200 mg cream was exposed to the sun for 3 h; • Acidic conditions: 200 mg cream was treated with 150 μl 9M HCl (aq.) for 1 h and neutralized with 150 μl 9M NaOH; • Basic conditions: […] μl 1M HCl; • Oxidation: 200 mg of cream was treated with 1 ml 30% H2O2 for 2 h; CBD assay % was calculated according to the untreated reference.

C=C(C)[C@@H]1CCC(C)=C[C@H]1c1c(O)cc(CCCCC)cc1O [CBD, cannabidiol]
dissolution of CBD in oil solvent [1]: complete dissolution
CBD assay ([2]; Acid: 200 mg 2% CBD cream, 150 μl 9M HCl, 1 h): 67.7%
CBD assay ([2]; Base: 200 mg 2% CBD cream, 200 μl 1M NaOH, time point 1 h): 81.9%
CBD assay ([2]; Heat: 200 mg 2% CBD cream at 100° C. (oil bath), 6 h): 87.8%
CBD assay ([2]; Oxidation: 200 mg 2% CBD cream, 1 ml 30% H2O2, 2 h): 63.5%
CBD assay ([2]; UV: 200 mg 2% CBD cream exposed to the sun, 3 h): 98.4%
